Assay results: ChEMBL document CHEMBL1154298, “Novel non-peptidic vinylsulfones targeting the S2 and S3 subsites of parasite cysteine proteases” (Bioorg Med Chem Lett, 2009)

How the values were obtained:
Rhodesain = Rhodesain (Trypanosoma brucei rhodesiense, UniProt Q95PM0)
[1] = biological target: T1, Cathepsin B-like cysteine protease (Trypanosoma brucei, UniProt Q6R7Z5)
T1 sequence (Q6R7Z5 whole entry): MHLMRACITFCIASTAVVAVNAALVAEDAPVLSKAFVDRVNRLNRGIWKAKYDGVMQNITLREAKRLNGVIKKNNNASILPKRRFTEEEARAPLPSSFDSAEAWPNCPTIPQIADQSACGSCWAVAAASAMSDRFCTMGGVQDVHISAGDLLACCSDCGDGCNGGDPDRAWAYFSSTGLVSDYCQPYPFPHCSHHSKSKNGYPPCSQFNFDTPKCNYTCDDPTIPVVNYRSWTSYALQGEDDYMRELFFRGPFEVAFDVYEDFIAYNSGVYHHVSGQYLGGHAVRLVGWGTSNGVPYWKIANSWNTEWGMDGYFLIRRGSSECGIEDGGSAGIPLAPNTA

[2] = tested on: Trypanosoma brucei brucei; assay: microbe, parasite or virus in culture; conditions: Jurkat
[3] = biological target: Rhodesain (Trypanosoma brucei rhodesiense) (UniProt Q95PM0)
Sequence of Rhodesain (Trypanosoma brucei rhodesiense) (Q95PM0 1-450): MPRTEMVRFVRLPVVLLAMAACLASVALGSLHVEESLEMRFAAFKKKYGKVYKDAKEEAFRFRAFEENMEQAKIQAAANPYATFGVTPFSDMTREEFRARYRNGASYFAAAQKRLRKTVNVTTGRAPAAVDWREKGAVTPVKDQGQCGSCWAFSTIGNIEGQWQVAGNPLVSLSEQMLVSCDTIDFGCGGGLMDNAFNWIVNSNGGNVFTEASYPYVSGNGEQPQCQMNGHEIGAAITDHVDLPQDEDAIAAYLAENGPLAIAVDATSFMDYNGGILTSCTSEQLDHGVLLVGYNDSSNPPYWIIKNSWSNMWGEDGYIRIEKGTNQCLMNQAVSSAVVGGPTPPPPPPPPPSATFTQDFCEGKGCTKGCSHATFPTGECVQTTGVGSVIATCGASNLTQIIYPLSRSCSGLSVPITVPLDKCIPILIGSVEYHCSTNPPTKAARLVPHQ

Cruzipain = Cruzipain (Trypanosoma cruzi, UniProt P25779)
Sequence of Cruzipain (P25779 whole entry): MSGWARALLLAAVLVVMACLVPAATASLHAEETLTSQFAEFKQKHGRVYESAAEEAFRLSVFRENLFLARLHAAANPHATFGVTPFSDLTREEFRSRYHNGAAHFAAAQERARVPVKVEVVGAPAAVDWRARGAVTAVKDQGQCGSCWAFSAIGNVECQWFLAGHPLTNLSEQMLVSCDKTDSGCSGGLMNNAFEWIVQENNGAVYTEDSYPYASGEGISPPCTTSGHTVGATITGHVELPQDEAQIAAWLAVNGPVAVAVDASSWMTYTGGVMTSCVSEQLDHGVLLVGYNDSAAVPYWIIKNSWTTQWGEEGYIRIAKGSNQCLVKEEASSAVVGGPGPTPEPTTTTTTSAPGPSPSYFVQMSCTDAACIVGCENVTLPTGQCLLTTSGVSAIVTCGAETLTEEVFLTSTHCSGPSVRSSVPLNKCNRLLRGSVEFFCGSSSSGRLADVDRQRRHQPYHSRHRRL

Jurkat = assay: cells; conditions: Homo sapiens
[4] = biological target: Cruzipain (Trypanosoma cruzi) (UniProt P25779); assay: Inhibition of Trypanosoma cruzi cruzain at 1 uM after 5 mins
Sequence of Cruzipain (Trypanosoma cruzi) (P25779 123-467 limits assumed): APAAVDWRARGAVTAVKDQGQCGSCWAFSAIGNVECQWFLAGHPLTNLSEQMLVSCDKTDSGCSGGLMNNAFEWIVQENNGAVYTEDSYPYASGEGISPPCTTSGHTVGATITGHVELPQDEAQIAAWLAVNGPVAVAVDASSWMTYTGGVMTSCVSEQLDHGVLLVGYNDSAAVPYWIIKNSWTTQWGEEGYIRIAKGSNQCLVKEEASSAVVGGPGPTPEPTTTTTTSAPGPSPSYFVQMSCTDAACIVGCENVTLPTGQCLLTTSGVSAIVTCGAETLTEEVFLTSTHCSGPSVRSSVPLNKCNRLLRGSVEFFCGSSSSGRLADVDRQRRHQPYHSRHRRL

Sequence of Rhodesain (Q95PM0 whole entry): as the sequence (Q95PM0 1-450) above

Compound	IC50 (Rhodesain) [µM]	Ki (Rhodesain) [µM]	IC50 [1] [µM]	GI50 [2] [µM]	Kinact [3] [s⁻¹]	IC50 (Cruzipain) [µM]	IC50 (Jurkat) [µM]	inhibition [4] [%]
Cc1nc(-c2cnccn2)sc1C(=O)N[C@H](/C=C/S(=O)(=O)c1ccccc1)CCc1ccccc1	0.01	4.77	> 100	7	0.0079	1	> 100	–
Cc1nc(-c2cccnc2)sc1C(=O)N[C@H](/C=C/S(=O)(=O)c1ccccc1)CCc1ccccc1	0.03	–	> 100	20	–	2	98	–
O=C(N[C@H](/C=C/S(=O)(=O)c1ccccc1)CCc1ccccc1)c1cc(-c2ccncc2)no1	0.05	16.2	> 100	10	0.0091	5	> 100	< 5
O=C(N[C@H](/C=C/S(=O)(=O)c1ccccc1)CCc1ccccc1)[C@H]1CCCC[C@@H]1C(=O)c1ccc(Cl)cc1	56	4.9	> 100	–	0.0007	> 100	–	–
O=C(N[C@H](/C=C/S(=O)(=O)c1ccccc1)CCc1ccccc1)c1cc(-c2cccnc2)no1	0.01	–	> 100	> 100	–	1	> 100	–
Cc1onc(-c2ccc(F)cc2)c1C(=O)N[C@H](/C=C/S(=O)(=O)c1ccccc1)CCc1ccccc1	–	–	–	–	–	–	–	12.5
Cc1nc(-c2ccccc2)sc1C(=O)N[C@H](/C=C/S(=O)(=O)c1ccccc1)CCc1ccccc1	< 0.006	0.32	> 100	> 100	0.0018	10	> 100	< 5
O=C(N[C@H](/C=C/S(=O)(=O)c1ccccc1)CCc1ccccc1)c1ccccc1C(=O)c1ccc(Cl)cc1	–	–	–	–	–	–	–	3
O=C(N[C@H](/C=C/S(=O)(=O)c1ccccc1)CCc1ccccc1)[C@@H]1CCCC[C@H]1C(=O)c1ccc(Cl)cc1	0.1	0.8	16	–	0.00051	0.05	–	–
O=C(N[C@H](/C=C/S(=O)(=O)c1ccccc1)CCc1ccccc1)c1cc(-c2ccccc2)no1	0.01	13	40	> 100	0.0031	2	> 100	–
CN1CCN(C(=O)N[C@@H](Cc2ccccc2)C(=O)N[C@H](/C=C/S(=O)(=O)c2ccccc2)CCc2ccccc2)CC1 [K-777]	–	–	4	7	–	–	–	–
CC(C)(C)c1cc(C(=O)N[C@H](/C=C/S(=O)(=O)c2ccccc2)CCc2ccccc2)n(Cc2ccccc2)n1	–	–	–	–	–	–	–	2
O=C(N[C@H](/C=C/S(=O)(=O)c1ccccc1)CCc1ccccc1)c1cc(-c2ccccn2)no1	0.05	7.4	> 100	10	0.0038	6	> 100	< 5
